Measured values: ChEMBL document CHEMBL1201862, “PubChem BioAssay data set” (2004)
The source made the active and inactive calls.

Assays:
[1] = target: T1, Zinc finger protein mex-5 (Caenorhabditis elegans, UniProt Q9XUB2); experiment: potency of MEX-5 RNA-binding blockers – biochemical, C. elegans, fluorescence polarization, dose response (AID 1960)
T1 sequence (Q9XUB2 whole entry): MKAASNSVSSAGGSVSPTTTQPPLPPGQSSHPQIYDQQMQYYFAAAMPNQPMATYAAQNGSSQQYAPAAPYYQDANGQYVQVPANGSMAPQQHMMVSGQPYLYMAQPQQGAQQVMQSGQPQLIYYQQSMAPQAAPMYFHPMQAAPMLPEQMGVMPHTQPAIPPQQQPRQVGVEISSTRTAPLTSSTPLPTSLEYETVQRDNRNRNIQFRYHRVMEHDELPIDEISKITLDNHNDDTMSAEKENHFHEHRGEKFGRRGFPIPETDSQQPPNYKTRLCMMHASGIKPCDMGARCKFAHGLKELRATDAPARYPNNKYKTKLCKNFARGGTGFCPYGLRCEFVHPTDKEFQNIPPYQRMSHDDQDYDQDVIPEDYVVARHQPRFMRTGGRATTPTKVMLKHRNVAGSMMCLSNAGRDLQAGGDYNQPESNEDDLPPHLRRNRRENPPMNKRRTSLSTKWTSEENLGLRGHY

HeLa = experiment: viability loss in HeLa cells – cell-based, 24 h, cherry-picked samples, cytotoxicity control, dose response (AID 504726); format: functional; settings: Homo sapiens;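 note: potency for cytotoxicity as loss of luminescence signal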
[2] = target: Small ubiquitin-related modifier 2 (Homo sapiens, UniProt P61956); experiment: SUMO2 binding disruption by SUMO1 hits – biochemical, FRET, human SUMO2, uHTS hits, selectivity assay for SUMO1 interaction inhibitor project, dose response (AID 624384); format: functional; settings: read-out: IC50_Mean
[3] = target: T2, Tyrosine-protein phosphatase non-receptor type 22 (Homo sapiens, UniProt Q9Y2R2); format: functional
T2 sequence (Q9Y2R2 whole entry): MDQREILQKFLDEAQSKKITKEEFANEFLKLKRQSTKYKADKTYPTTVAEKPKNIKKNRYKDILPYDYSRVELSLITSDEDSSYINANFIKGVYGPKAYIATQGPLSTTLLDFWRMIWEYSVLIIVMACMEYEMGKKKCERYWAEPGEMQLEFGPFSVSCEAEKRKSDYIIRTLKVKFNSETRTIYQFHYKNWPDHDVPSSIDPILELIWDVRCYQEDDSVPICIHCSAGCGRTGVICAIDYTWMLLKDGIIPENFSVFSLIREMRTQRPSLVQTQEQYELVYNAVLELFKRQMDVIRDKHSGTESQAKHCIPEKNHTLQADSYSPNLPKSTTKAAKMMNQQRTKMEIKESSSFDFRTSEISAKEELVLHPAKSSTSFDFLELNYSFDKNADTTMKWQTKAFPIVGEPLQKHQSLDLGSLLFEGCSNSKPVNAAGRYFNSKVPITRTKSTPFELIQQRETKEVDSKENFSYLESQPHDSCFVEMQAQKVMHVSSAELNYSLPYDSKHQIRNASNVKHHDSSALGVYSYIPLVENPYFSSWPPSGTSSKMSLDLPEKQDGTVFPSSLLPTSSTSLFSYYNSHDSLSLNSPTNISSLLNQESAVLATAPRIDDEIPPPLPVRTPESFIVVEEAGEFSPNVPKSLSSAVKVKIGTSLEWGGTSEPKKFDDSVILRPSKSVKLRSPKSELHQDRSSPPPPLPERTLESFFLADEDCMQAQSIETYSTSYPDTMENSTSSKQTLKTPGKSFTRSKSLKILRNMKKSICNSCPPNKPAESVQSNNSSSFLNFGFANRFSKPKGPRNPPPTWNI

[4] = target: T2, Tyrosine-protein phosphatase non-receptor type 22; format: functional; remark: listed apart in the source
[5] = target: T3, Voltage-gated N-type calcium channel alpha-1B subunit/Amyloid beta A4 precursor protein-binding family A member 1 (Homo sapiens, UniProt Q00975+Q02410); format: protein assay
Troponin, cardiac muscle = Troponin, cardiac muscle (Homo sapiens, UniProt P19429+P45379+P63316); experiment: compounds desensitizing RTF to calcium – biochemical, fluorescence, cardiac regulated thin filaments, triplicate IC50, dose response (AID 504742); format: protein-complex assay
[6] = target: T3, Voltage-gated N-type calcium channel alpha-1B subunit/Amyloid beta A4 precursor protein-binding family A member 1; format: protein assay; remark: listed apart in the source
[7] = target: Induced myeloid leukemia cell differentiation protein Mcl-1 (Homo sapiens, UniProt Q07820); format: functional
[8] = target: T2, Tyrosine-protein phosphatase non-receptor type 22; experiment: LYP1 Fluorescent Assay using OMFP substrate for In Vitro dose response studies. [Related pubchem assays (depositor defined):AID1779, AID1784, AID435024]
[9] = DRD fibroblast viability loss – cell-based, non-viral oncogenic, luminescence, dose response (AID 1934); format: functional; settings: Homo sapiens
[10] = target: Glucose-6-phosphate 1-dehydrogenase (Homo sapiens, UniProt P11413); experiment: inhibition of Homo sapiens G6PD, dose series – biochemical, fluorescence, selectivity assay for P. falciparum G6PD inhibitor project, dose response (AID 504792); format: functional
BJ = experiment: cells; format: functional, cell-based; settings: Homo sapiens
Jurkat = experiment: blockers of NF-kB activation in T cells – Jurkat, luciferase reporter, luminescence, B- and T-cell, dose response (AID 489004); format: functional, cell-based; settings: Homo sapiens;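 note: NF-kB luciferase reporter Jurkat cells stimulated with PMA plus ionomycin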
[11] = target: T4, Rac GTPase-activating protein 1 (Homo sapiens, UniProt Q9H0H5); experiment: blockers of MgcRacGAP-driven Rac1 GTP hydrolysis – biochemical, ADP Hunter fluorescence, primary and confirmatory, confirmation (AID 624330); format: functional
T4 sequence (Q9H0H5 whole entry): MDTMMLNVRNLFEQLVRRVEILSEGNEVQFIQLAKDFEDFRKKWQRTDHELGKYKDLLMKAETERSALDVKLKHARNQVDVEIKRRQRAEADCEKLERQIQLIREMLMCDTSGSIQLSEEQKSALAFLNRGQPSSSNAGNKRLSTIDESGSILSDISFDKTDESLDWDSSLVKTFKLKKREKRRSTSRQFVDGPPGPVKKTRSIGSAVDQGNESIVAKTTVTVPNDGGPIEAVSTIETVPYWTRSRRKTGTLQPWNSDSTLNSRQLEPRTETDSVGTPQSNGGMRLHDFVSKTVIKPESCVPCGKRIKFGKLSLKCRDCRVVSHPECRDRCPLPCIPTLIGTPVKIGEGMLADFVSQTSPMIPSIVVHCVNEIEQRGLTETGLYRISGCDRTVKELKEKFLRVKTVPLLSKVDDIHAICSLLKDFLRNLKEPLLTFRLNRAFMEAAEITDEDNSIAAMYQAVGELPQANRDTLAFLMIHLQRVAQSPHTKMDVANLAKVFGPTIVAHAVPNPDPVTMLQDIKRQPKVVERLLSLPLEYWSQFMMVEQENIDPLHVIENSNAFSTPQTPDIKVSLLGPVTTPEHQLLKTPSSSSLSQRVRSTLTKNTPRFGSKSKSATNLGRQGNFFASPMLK

CCN(CC)CCN1C(=O)c2cccc3cc(N)cc(c23)C1=O
EC50 [1]: 5.13 µM (inconclusive) | AC50 (HeLa): 109 µM (active)

O=C(O)c1cccc(-n2cccc2/C=C2/NC(=O)N(c3ccc(Cl)cc3)C2=O)c1
IC50 [2]: 0.752 µM (active) | IC50 [3]: 2.44 µM (active) | IC50 [4]: 4.4 µM (active) | IC50 [5]: 12.1 µM (active) | IC50 (Troponin, cardiac muscle): 3.45 µM (active) | IC50 [6]: 9.85 µM (active) | IC50 [7]: 2.69 µM (active) | IC50 [8]: 4.54 µM (active)

C=C1C(=O)O[C@@H]2C[C@@H](C)[C@@H]3C=CC(=O)[C@@]3(C)[C@@H](OC(=O)CC(=O)O[C@H]3[C@@H]4C(=C)C(=O)O[C@@H]4C[C@@H](C)[C@@H]4C=CC(=O)[C@]43C)[C@H]12
EC50 [9]: 0.332 µM (inconclusive) | IC50 [10]: > 80 µM (inactive) | EC50 (BJ): 5.4 µM (inconclusive) | IC50 (Jurkat): 0.29 µM (active)

O=S(=O)(O)c1cc(Cl)cc(N=Nc2ccc(O)cc2O)c1O
IC50 [11]: 83.7 µM (active)
